System: Eimeria tenella
Assay: Protective immunity against Eimeria tenella challenge after in ovo treatment and live coccidiosis vaccine
Assay type: in vivo, Broiler chicks
Set-up: key to Mean Cecal Score: cecal lesion score per Johnson & Reid (1970); Mean Gain: unit not given here
Conditions: challenged at 28 days
From the text: A laboratory strain of Eimeria tenella was used as live coccidiosis vaccine (1000 oocysts per bird), and was given by individual oral gavage to day-old chicks. At 28 days of age, each bird was challenged by inoculation of virulent cecal coccidia (a field isolate of E. tenella with a challenge dose of 100,000 oocysts per bird) or kept as unchallenged controls. Six days post-challenge, birds were euthanized for necropsy and lesion score (see, e.g., Johnson & Reid, 1970, Exper. Parasitol. 28:30-36). Weight gains were calculated. […] Partial protection is not uncommon with coccidiosis vaccines administered in this way in short term challenge experiments. […]

[1] = E10 (10 IU) in ovo, Table 2 second set
[2] = E10 (10 IU) in ovo, Table 2 third set
[3] = E20 (20 IU) in ovo, Table 2 second set
[4] = E20 (20 IU) in ovo, Table 2 third set
[5] = E30 (30 IU) in ovo, Table 2 second set
[6] = E30 (30 IU) in ovo, Table 2 third set

In the case of vitamin E, the “Mean Cecal Score” value [1] is reported as 1.53, the “Mean Gain” value [1] is reported as 361 and the “Mean Cecal Score” value [2] is reported as 1.46. For the same substance, the “Mean Gain” value [2] was 438, the “Mean Cecal Score” value [3] was 1.73 and the “Mean Gain” value [3] was 357. The “Mean Cecal Score” value [4] was 1.21, the “Mean Gain” value [4] was 322 and the “Mean Cecal Score” value [5] was 1.55. The “Mean Gain” value [5] was 388, the “Mean Cecal Score” value [6] was 0.5 and the “Mean Gain” value [6] was 454.
